Assay results taken from paper PMC10187093, “Synthesis, in silico modelling, and in vitro biological evaluation of substituted pyrazole derivatives as potential anti-skin cancer, anti-tyrosinase, and antioxidant agents” (Journal of Enzyme Inhibition and Medicinal Chemistry, 2023).

Tests used:
[1] = tested on: SK-MEL-28; test: Scratch wound healing assay, SK-MEL-28; assay type: cell-based, human; conditions: 0, ½IC50, IC50, 1½IC50; 48 h; vs untreated control
Experimental: (§1) The scratch wound healing assay was performed to evaluate compound P25’s ability to limit cell migration and scratch wound closure following our previously described protocol. Briefly, cells were seeded in wells of a 24-well plate and incubated to 100% confluent monolayer, following which a sterile 200 µL Gilson pipette tip was used to scratch a straight line across the centre. […] The wounded and re-epithelialisation areas were imaged at 0 h, 24 h, and 48 h using an inverted phase-contrast Olympus IX51 microscope (Olympus America Inc., Center Valley, PA) attached to an Infinity 2 digital camera. Images were processed with an Infinity analysis software version 6.5.6 (Teledyne Lumenera, Ottawa, Canada) and analysed with Adobe Photoshop. The ImageJ software (NIH, Bethesda, MD) was used to measure the migratory area of each treatment group, with results expressed as remaining percentage of unfilled wound surface at 0 h[108].

[2] = tested on: A431; test: Scratch wound healing assay, A431; assay type: cell-based, human; conditions: 0, ½IC50, IC50, 1½IC50; 48 h; vs untreated control
Experimental: as §1

[3] = tested on: SK-MEL-28; test: Immunoblotting of apoptosis markers, SK-MEL-28; assay type: cell-based, human; conditions: western blot, 48 h, vs untreated
Experimental: Immunoblotting was performed according to standard procedures of the Bio-Rad electrophoresis system (Bio-Rad, Hercules, CA) as described earlier. Briefly, protein extracts were obtained by lysing cells in RIPA buffer containing protease inhibitors, and were resolved by 4–12% polyacrylamide ready mini-PROTEAN TGX gel electrophoresis with sodium dodecyl sulphate (SDS) running buffer. Gels were electrotransferred to 0.45 μm nitrocellulose membranes (Bio-Rad, Hercules, CA) in Tris-glycine (TG) buffer using a Trans-Blot Turbo Transfer Pack according to manufacturer’s instructions. Membranes were incubated for 1 h in 5–7% non-fat powdered milk dissolved in TBST (Tris-buffered saline containing 0.05% Tween 20) or 5% BSA for phosphorylated proteins, to saturate nonspecific binding sites, followed by an overnight incubation (4 °C) with primary antibodies. Membranes were washed 5× with TBST and treated with suitable HRP-conjugated secondary antibodies (Amersham Life Science Inc., Arlington Height, IL) for another 2 h at room temperature, followed by additional wash steps and chemiluminescence-based detection with the Amersham ECL Prime detection reagent kit and the Bio-Rad Quantity One ChemiDoc™ detection and imaging analysis software systems as described earlier[108]^,[109].

[4] = tested on: A375; test: MTT antiproliferative/cytotoxicity assay, A375; assay type: cell-based, human; conditions: Homo sapiens, A-375, 48 h, melanoma, MTT, 48 h; read-out: IC50 A375
Experimental: Human-derived GFP-expressing melanoma A375 and epidermoid carcinoma A431 cell lines were purchased from Angio-Proteomie (Boston, MA). Human melanoma carcinoma SK-MEL-28 and human immortalised keratinocytes (HaCaT) cell lines were acquired from American Type Culture Collection (ATCC; Manassas, VA). Human cutaneous SCC cell line SCC-12[192] was generously provided by Dr. James G. Rheinwald to Dr. Tatiana Efimova. Except SK-MEL-28, which was cultured in an RPMI-1640 medium supplemented with 5% FBS, all other human immortalised cell lines were grown and maintained in DMEM containing varying percentages of FBS; 5% FBS for A431, SCC-12, and HaCaT lines, and 10% FBS for A375. All culture media were routinely supplemented with 1% PEST 100X (100 U/mL penicillin, 100 μg/mL streptomycin), and cells were cultured in incubators maintained at 37 °C under an atmosphere of 95% humidity, 20% O2, and 5% CO2. The growth media of incubated cells were changed every 2–3 days until they attained 70–80% confluence, after which they were sub-cultured for experiments and re-passaging. DMSO was used as the vehicle to prepare a 10 mM stock solution of the test compounds.
Stock solutions (10 mM) were prepared by dissolving each compound to be screened in DMSO. From these stock solutions, escalating concentrations were prepared using the corresponding cell growth media as a diluent, and the cells (65–75% confluent) were treated with (0–40 µM) or without the drug in sext- to octuplicate and incubated for 48 h. All treatment protocols and controls were prepared as previously described.
The potency and cytotoxicity of the test compounds against two cutaneous melanoma (A375 and SK-MEL-28) and two non-melanoma (A431 and SCC-12) SC cell lines in addition to a control immortalised normal human epidermal keratinocytes (HaCaT) cell line were assessed by MTT assay as previously described.

[5] = tested on: SCC-12; test: MTT antiproliferative/cytotoxicity assay, SCC-12; assay type: cell-based, human
Experimental: Human-derived GFP-expressing melanoma A375 and epidermoid carcinoma A431 cell lines were purchased from Angio-Proteomie (Boston, MA). Human melanoma carcinoma SK-MEL-28 and human immortalised keratinocytes (HaCaT) cell lines were acquired from American Type Culture Collection (ATCC; Manassas, VA). […] The growth media of incubated cells were changed every 2–3 days until they attained 70–80% confluence, after which they were sub-cultured for experiments and re-passaging. DMSO was used as the vehicle to prepare a 10 mM stock solution of the test compounds.
Stock solutions (10 mM) were prepared by dissolving each compound to be screened in DMSO.

[6] = DPPH free radical scavenging assay
Experimental: An initial screen was done of all 25 derivatives at a concentration of 1 mM. […] Methanol was used as the diluent, and 100 µL of DPPH (200 µM; Sigma-Aldrich, St. Louis, MO) was added to each well. […] The scavenging capacity (SC) was calculated as SC% = ((ΔAcontrol – ΔAsample)/ΔAcontrol) × 100%, where ΔAcontrol was the absorbance of the reagent blank, and ΔAsample was the absorbance of the test samples. The control contained all reagents except the compounds, and all tests were performed in triplicate. Quercetin served as a positive control. The DPPH methanolic solution (1 mL) mixed with DMSO (5 µL) served as a negative control.

Q: With `O=C1CC(c2ccccc2)=NN1c1ccc(Br)cc1` [P25] as the molecule, how does the “scratch wound closure / migration, SK-MEL-28” value [1] read?
A: The value was “significantly and dose-dependently decreased the scratch wound areas”.

Q: And the “scratch wound closure / migration, A431” value [2]?
A: The value was “significantly and dose-dependently decreased the scratch wound areas”.

Q: What about the “activated caspase-3, caspase-9 and cleaved PARP levels, SK-MEL-28” value ([3]; concentration-dependent) of the same molecule?
A: The value was “substantially increased levels”.

Q: And the “anti-apoptotic Bcl-2 protein levels, SK-MEL-28” value [3]?
A: Its value is “corresponding decreases”.

Q: What about the “pro-apoptotic Bax expression, SK-MEL-28” value [3] of the same molecule?
A: The value was “dose-dependent amplified expression”.

Q: What about the IC50 [4] of the same molecule?
A: Its IC50 is 14.3 ± 0.9 µM.

Q: What about the IC50 ([5]; Homo sapiens, SCC12, 48 h, non-melanoma, MTT, 48 h, read-out: IC50 SCC-12) of the same molecule?
A: The IC50 was 12.2 ± 0.6 µM.

Q: What about the “selectivity index (SI) SCC-12” value ([5]; IC50 HaCaT divided by IC50 SCC-12) of the same molecule?
A: The value was roughly 2.5.

Q: And the “Percent Scavenging (DPPH)” value ([6]; 1 mM)?
A: Its value is 77.30%.

Q: What about the IC50 ([6]; N.A. = No Activity, > 1000 = not biologically relevant, read-out: IC50 Value, DPPH antioxidant activity (Table S4)) of the same molecule?
A: Its IC50 is 190 µM.
